Data: patent US20100197616A1, “Proliferation inhibitor of helicobacter pylori including alpha-n-acetyl-glucosaminyl bond-containing monosaccharide derivatives” (THE NOGUCHI INSTITUTE, priority 2007, published 2010)

Tests used:
H. pylori (ATCC 43504) = assay: H. pylori-proliferation inhibitory effect (OD 600 nm versus negative control); format: cell-based, Helicobacter pylori
Method: The effect of GlcNAc alpha-O-Et on H. pylori was confirmed according to the following procedures. Bacterial cells of H. pylori (ATCC 43504) stored in a brucella broth culture medium frozen at −80° C. were cultured in the same culture medium (3 mL) supplemented with 10% equine serum at 35° C. in the presence of 15% CO2 for 40 hours according to the shaking culture technique, the movement of bacterial cells was observed under a microscope and non-coccoid type bacterial cells of H. pylori were recovered. The culture medium was inspected for the OD values at 600 nm, followed by the dilution thereof with Muller-Hinton culture medium supplemented with 5.5% equine serum such that the number of bacterial cells present therein was equal to 4×10^7, and 3 mL thereof in total was cultured at 35° C. in the presence of 15% CO2 for 24 hours according to the shaking culture technique, followed by the confirmation by a microscope to thus give an H. pylori-containing culture medium (bacterial cell density: 2×10^7/mL) used in the test for the confirmation of the effect of the foregoing compound. On the other hand, there were prepared Muller-Hinton culture mediums (free of any bacterial cell of H. pylori) each containing 902.6 μM to 14.4 mM of the foregoing GlcNAc alpha-O-Et and supplemented with 5% equine serum, each of the resulting culture mediums was added to the foregoing H. pylori-containing culture medium in a mixing ratio of 1:1 (by volume) (total volume: 100 μL each; on a 96-well plate), followed by the mixing thereof and the subsequent cultivation at 35° C. in the presence of 15% CO2 for 96 hours. After the cultivation thereof over a predetermined period of time, the bacterial cell density thus proliferated was determined by the determination of the OD values at 600 nm, followed by the comparison of the result observed for the sample to which the candidate compound was added with that observed for the negative control free of any candidate compound (the control depicted in FIG. 1) to thus evaluate the proliferation inhibitory effect of the compound. In this respect, 1 U herein means 2.9 μmol/mL. The effect of GlcNAc alpha-cholestanol on H. pylori was confirmed according to the following procedures. Bacterial cells of H. pylori (ATCC 43504) stored in a brucella broth culture medium frozen at −80° C. were cultured in the same culture medium (3 mL) supplemented with 10% equine serum at 35° C. in the presence of 15% CO2 for 40 hours according to the shaking culture technique, the movement or behavior of bacterial cells was observed under a microscope and non-coccoid type bacterial cells of H. pylori were recovered. […]

[1] = Decomposition in culture mediums and the stomach; details: within the culture mediums and the stomach

CCO[C@H]1OC(CO)[C@@H](O)[C@H](O)C1NC(C)=O (stereo partly drawn) [Compound 1, Ethoxy 2-acetamide-2-deoxy-N-acetyl-alpha-D-glucosaminide]
proliferation ability of H. pylori (H. pylori (ATCC 43504); culture medium containing not less than 1.8 mM): not more than 50%
inhibition of the proliferation of H. pylori (H. pylori (ATCC 43504); culture medium containing not less than 7.2 mM): completely inhibit
H. pylori proliferation inhibited (H. pylori (ATCC 43504); not less than 625 mU/mL (1.8 mM), FIG. 1, cultivation up to 96 hours): not less than 50%
decomposition (stability) [1]: never decomposed

CC(=O)NC1[C@@H](O[C@H]2CC[C@@]3(C)C(CCC4C3CC[C@@]3(C)C4CC[C@@H]3[C@H](C)CCCC(C)C)C2)OC(CO)[C@@H](O)[C@@H]1O (stereo partly drawn) [Compound 2, 3-beta-Cholestanyl-2-Acetamide-2-Deoxy-N-Acetyl-alpha-D-Glucosaminide]
inhibition at 180 µM (H. pylori (ATCC 43504); Helicobacter pylori, ATCC43504, at least 62.5 mU/mL (180 μM, nominal, insoluble fraction filtered off), within 1.5 to 2 days, FIG. 2): 40 to 50%
